This passage reports IC50 results from ChEMBL document CHEMBL1128945, “Peptide inhibitors of IKB protease: Modification of the C-termini of Z-LLF-CHO” (Bioorg Med Chem Lett, 1996).

Structures are written as SMILES. Square brackets hold non-standard residues; d marks the D form. Peptide text beside a SMILES is read from it. * marks the point of attachment. 1Nal = N[C@@H](Cc1cccc2ccccc12)C(=O)O; 2Nal = N[C@@H](Cc1ccc2ccccc2c1)C(=O)O; Cbz = O=C(OCc1ccccc1)* Where only a bound is given, the exact number is not on record here.

Assay [1] in a line: Compound was evaluated for its ability to inhibit activation of NFkB protease stably expressed in human Jurkat T-cells. The class given is cell-based.
In assay [2] the test system is Jurkat. Put plainly: Ability to decrease IL-8 levels in human Jurkat T-cells. In kind it is functional, cell-based.
Assay [3] deals with Jurkat. In words: Ability to decrease IL-2 levels in human Jurkat T-cells. In kind it is functional, cell-based.

Take `CC(=O)c1cccc(NC(=O)[C@H](CC(C)C)NC(=O)[C@H](CC(C)C)NC(=O)OCc2ccccc2)c1`: in assay [1], the 50% inhibitory concentration (IC50) (in general, the concentration needed to halve the response being measured) is over 10 µM. With `CC(C)C[C@H](NC(=O)OCc1ccccc1)C(=O)N[C@@H](CC(C)C)C(=O)N[C@@H](Cc1ccccc1)C(=O)C(F)(F)C(F)(F)F`, in assay [1], the 50% inhibitory concentration (IC50) is over 30 µM. `CC(=O)[C@H](Cc1ccccc1)NC(=O)[C@H](CC(C)C)NC(=O)[C@H](CC(C)C)NC(=O)OCc1ccccc1`: the IC50 in assay [1] is over 30 µM.

For `CC(C)C[C@H](NC(=O)OCc1ccccc1)C(=O)N[C@@H](CC(C)C)C(=O)N[C@@H](Cc1ccccc1)C(=O)C(=O)C(=O)OCc1ccccc1`, in assay [1], it took 20 µM to reach half-maximal inhibition (IC50). `CON(C)C(=O)[C@H](Cc1ccccc1)NC(=O)[C@H](CC(C)C)NC(=O)[C@H](CC(C)C)NC(=O)OCc1ccccc1` (stereo in doubt; 4b(D)) had an IC50 in assay [1] of over 30 µM. In the case of `CC(C)CC(NC(=O)OCc1ccccc1)C(=O)NC(CC(C)C)C(=O)NC(C=O)Cc1ccccc1` (stereo not drawn) (Cbz-Leu-Leu-Phe-aldehyde; configuration not given here), the concentration for half-maximal inhibition (IC50) with Jurkat [2] stood at 2 µM; in assay [1] it was 2 µM; with Jurkat [3] it was 0.9 µM. As for `CC(C)C[C@H](NC(=O)[C@H](Cc1cccc2ccccc12)NC(=O)[C@H](Cc1ccc2ccccc2c1)NC(=O)OCc1ccccc1)C(=O)O` (Cbz-[2Nal]-[1Nal]-Leu-OH), it took 3 µM to reach half-maximal inhibition in assay [1] (IC50).

In turn, `CON(C)C(=O)[C@H](Cc1ccccc1)NC(=O)[C@H](CC(C)C)NC(=O)[C@H](CC(C)C)NC(=O)OCc1ccccc1` (stereo in doubt; 4a(L)) displayed an IC50 in assay [1] of 18 µM. Same read-out and setting: the result for `CC(C)C[C@H](NC(=O)OCc1ccccc1)C(=O)N[C@@H](CC(C)C)C(=O)N[C@@H](Cc1ccccc1)C(=O)Nc1ccc(C(F)(F)F)cc1` reads over 30 µM.
